Marks after values point to notes of the source that are not given here.
Tests used:
Puccinia recondita = test: In vivo test on Puccinia recondita (brown rust); conditions: wheat plants, spray, 500 ppm, grading 10 days after contamination
Method in brief: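 Wheat (Scipion) at the 1-leaf stage sprayed with compound suspension (acetone/tween/DMSO diluted in water), then inoculated 24 h later with Puccinia recondita spores at 100.000 spores per ml. Plants were held 24 h at 20 °C/100% RH, then 10 days at 20 °C/70% RH; protection graded 10 days post-inoculation versus untreated controls.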

Phytophthora infestans = format: in vivo; conditions: tomato plants, spray, 500 ppm, grading 5 days after contamination
[1] = pH 2.7
Uromyces appendiculatus = test: In vivo test on Uromyces appendiculatus (brown rust of bean); conditions: Saxa variety plants, spray, 500 ppm, grading 10 days after contamination
Botrytis cinerea = test: In vivo test on Botrytis cinerea (grey mould); conditions: gherkin plants, spray, 500 ppm, grading 4/5 days after contamination
Protocol: The active ingredients tested are prepared by homogenization in a mixture of acetone/Tween/DMSO, then diluted with water to obtain the desired active material
Gherkin plants (Vert petit de Paris variety), sown on a 50/50 peat soil-pozzolana substrate in starter cups and grown at 18-20° C., are treated at the cotyledon Z11 stage by spraying with the active ingredient prepared as described above.
Plants, used as controls, are treated with an aqueous solution not containing the active material. After 24 hours, the plants are contaminated by spraying them with an aqueous suspension of cryopreserved Botrytis cinerea spores (50.000 spores per ml) on upper surface of the leaves. The spores are suspended in a nutrient solution composed of: • 10 g/L of PDB; • 50 g/L of D-fructose; • 2 g/L of NH4NO3; • 1 g/L of KH2PO4.
The contaminated cucumber plants are settled for 4/5 days in a climatic room at 17° C. (day/night) and at 80% relative humidity.
Grading is carried out 4/5 days after the contamination, in comparison with the control plants.
(§1) Under these conditions, good (at least 70%) or total protection is observed at a dose of 500 ppm with the following compounds: […]

Sphaerotheca fuliginea = test: In vivo test on Sphaerotheca fuliginea (cucurbits powdery mildew); conditions: gherkin plants, spray, 500 ppm, grading 12 days after contamination
Protocol: (§2) The active ingredients tested are prepared by homogenization in a mixture of acetone/tween/DMSO, then diluted with water to obtain the desired active material.
Gherkin plants (Vert petit de Paris variety) in starter cups, sown on a 50/50 peat soil-pozzolana substrate and grown at 20° C./23° C., are treated at the cotyledon Z10 stage by spraying with the aqueous suspension described above. Plants, used as controls, are treated with an aqueous solution not containing the active material.
After 24 hours, the plants are contaminated by spraying them with an aqueous suspension of Sphaerotheca fuliginea spores (100.000 spores per ml). The spores are collected from a contaminated plants. The contaminated gherkin plants are incubated at about 20° C./25° C. and at 60/70% relative humidity.
Grading (% of efficacy) is carried out 12 days after the contamination, in comparison with the control plants.
as §1

[2] = system: Mycosphaerella graminicola; test: In vivo test on Mycosphaerella graminicola (wheat leaf spot); conditions: wheat plants, spray, 500 ppm, grading 21 to 28 days after contamination
Method in brief: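 Scipion wheat at 1-leaf stage was sprayed with compound suspension (acetone/tween/DMSO diluted in water), then inoculated 24 h later with spores (500.000/ml). Plants were held 72 h at 18° C and 100% RH, then 21 to 28 days at 90% RH. Efficacy was graded as % versus untreated controls.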

[3] = Measurement of log P values by HPLC on reversed phase columns (EEC directive 79/831 Annex V.A8); conditions: pH 2.7
Alternaria brassicae = test: In vivo test on Alternaria brassicae (leaf spot of crucifers); conditions: radish plants, spray, 500 ppm, grading 6 to 7 days after contamination
Protocol: as §2
Radish plants (Pernot variety), sown on a 50/50 peat soil-pozzolana substrate in starter cups and grown at 18-20° C., are treated at the cotyledon stage by spraying with the active ingredient prepared as described above.
Plants, used as controls, are treated with the mixture of acetone/tween/water not containing the active material.
After 24 hours, the plants are contaminated by spraying them with an aqueous suspension of Alternaria brassicae spores (40,000 spores per cm^3). The spores are collected from a 12 to 13 days-old culture.
The contaminated radish plants are incubated for 6-7 days at about 18° C., under a humid atmosphere.
Grading is carried out 6 to 7 days after the contamination, in comparison with the control plants.
Under these conditions, good protection (at least 70%) is observed at a dose of 500 ppm with the following compounds: […]

Pyrenophora teres = test: In vivo test on Pyrenophora teres (barley net blotch); conditions: barley plants, spray, 500 ppm, grading 12 days after contamination
Protocol: The active ingredients tested are prepared by homogenization in a mixture of acetone/Tween/DMSO, then diluted with water to obtain the desired active material concentration.
Barley plants (Plaisant variety), sown on a 50/50 peat soil-pozzolana substrate in starter cups and grown at 22° C. (12 h)/20° C. (12 h), are treated at the 1-leaf stage (10 cm tall) by spraying with the active ingredient prepared as described above.
Plants, used as controls, are treated with an aqueous solution not containing the active material.
After 24 hours, the plants are contaminated by spraying them with an aqueous suspension of Pyrenophora teres spores (12.000 spores per ml). The spores are collected from a 12-day-old culture.
The contaminated barley plants are incubated for 24 hours at about 20° C. and at 100% relative humidity, and then for 12 days at 80% relative humidity.
Grading is carried out 12 days after the contamination, in comparison with the control plants.
Under these conditions, good (at least 70%) is observed at a dose of 500 ppm with the following compounds: […]

Row | SMILES | Eff. % (Puccinia recondita) | Eff. % (Phytophthora infestans) | LogP [1] | Eff. % (Uromyces appendiculatus) | Eff. % (Botrytis cinerea) | Eff. % (Sphaerotheca fuliginea) | Eff. % [2] | chromatographic logP [3] | Eff. % (Alternaria brassicae) | Eff. % (Pyrenophora teres)
1 | Cn1c(/C(=N\OCc2cccc(N)n2)c2cccc(F)c2)noc1=O [Example 83] | 89% | 100% | 1.34 [a] | 75% | 73% | 85% | 93% |  |  | 
2 | COc1ccc(OC)c(CC(=O)Nc2cccc(CO/N=C(/c3ccccc3)c3noc(=O)n3C)n2)c1 [Example 190] | 94% | 100% | 3.6 [a] | 83% |  | 98% | 100% |  |  | 
3 | CCN(CC)c1cccc(CO/N=C(/c2ccccc2)c2noc(=O)n2C)n1 [Example 197, 3-[(Z)-({[6-(diethylamino)pyridin-2-yl]methoxy}imino)(phenyl)methyl]-4-methyl-1,2,4-oxadiazol-5(4H)-one] | 94% | 100% |  | 89% |  | 80% | 96% | 2.63 |  | 
4 | CCn1c(/C(=N\OCc2cccc(N)n2)c2ccccc2)noc1=O [Example 209] | 88% | 84% | 1.42 [a] |  |  | 75% |  |  | 70% | 
5 | CCCCCC(=O)Nc1cccc(CO/N=C(/c2cccc(OC)c2)c2noc(=O)n2C)n1 [Example 211] | 71% | 91% | 3.92 [a] |  | 84% | 72% |  |  |  | 
6 | COc1cccc(C(=O)Nc2nc(CO/N=C(/c3ccccc3)c3noc(=O)n3C)cs2)c1 [Example 212] | 89% | 73% | 3.58 [a] | 100% |  | 100% | 100% |  | 70% | 97%
